The record followed here is patent EP0098615A1, “1-Oxadethiacephalosporin compound and antibacterial agent containing the same” (MEIJI SEIKA KAISHA LTD., priority 1982, dated 1984).

SMILES strings stand for the structures. Values after ≈ are worked out from the molar mass of the structure shown. Like-named read-outs stand apart in the source and are kept apart here. A value given as a limit tells only on which side of the number the result lay.

Assay [1] relates to Staphylococcus aureus Smith. The assay can be described thus: MIC by serial dilution method on agar plates. The format is cell-based. The conditions noted are these: read-out: Minimum inhibitory concentrations (MIC.).
In assay [2] the test system is Staphylococcus aureus 209P JC-1. The assay can be described thus: MIC by serial dilution method on agar plates. The format is cell-based. The conditions noted are these: read-out: Minimum inhibitory concentrations (MIC.).
For assay [3], the system named is Escherichia coli NIHJ JC-2. The assay can be described thus: MIC by serial dilution method on agar plates. It is filed as cell-based.
Assay [4] has as its system Klebsiella pneumoniae PCI 602. The assay can be described thus: MIC by serial dilution method on agar plates. The format is cell-based.
A further assay deals with Proteus mirabilis GN 79. The assay is described as follows: MIC by serial dilution method on agar plates. It is filed as cell-based.
The subject of assay [5] is Salmonella typhimurium LT-2. The assay is described as follows: MIC by serial dilution method on agar plates. The settings on record: Salmonella enterica, read-out: Minimum inhibitory concentrations (MIC.). The format is cell-based.
The next assay deals with Proteus vulgaris GN 76. The assay is described as follows: MIC by serial dilution method on agar plates. The format is cell-based.
The test system of a further assay is Protues rettgeri GN 624. The assay can be described thus: MIC by serial dilution method on agar plates. The settings on record: read-out: Minimum inhibitory concentrations (MIC.). The format is cell-based.
In assay [6] the test system is Serratia marcescens No. 2. The assay is described as follows: MIC by serial dilution method on agar plates. It is filed as cell-based.
In another assay the test system is Escherichia coli No. 29. The assay can be described thus: Curative effect of oral administration in infected mice (survival). It is filed as in vivo. The conditions noted are these: three mice in each group, i.p. inoculum 3.25 x 10^5 CFU/mouse, 7 days observation. The text has this:
Thus, some tests were made to evaluate the curative effects of the new compound of this invention in therapeutic treatment of bacterial infections when the new compound was orally given to mice (average body weight 20 g) which had been infected with Escherichia coli No. 29. In these tests for therapeutic treatment of the bacterial infection, mice (three mice in each group) were inoculated intraperitoneally with Escherichia coli No. 29 at an inoculum dose of 3.25 x 10^5 CFU/mouse and then immediately treated by oral administration of the test compound. For the subsequent 7 days, the mice were kept under observation and the number of surviving mice was counted.

Where [7] appears, read: Staphylococcus aureus Smith, serial dilution on agar plates.
Where [8] appears, read: Staphylococcus aureus 209P JC-1, serial dilution on agar plates.
[9] abbreviates: NIHJJC2, Escherichia coli NIHJ JC-2, serial dilution on agar plates, read-out: Minimum inhibitory concentrations (MIC.).
Where [10] appears, read: PCI602, Klebsiella pneumoniae PCI 602, serial dilution on agar plates, read-out: Minimum inhibitory concentrations (MIC.).
[11] abbreviates: GN79, Proteus mirabilis GN 79, serial dilution on agar plates, read-out: Minimum inhibitory concentrations (MIC.).
Setting [12] is: Salmonella typhimurium LT-2, serial dilution on agar plates.
Setting [13] is: GN76, Proteus vulgaris GN 76, serial dilution on agar plates, read-out: Minimum inhibitory concentrations (MIC.).
The mark [14] stands for this setting: Protues rettgeri GN 624, serial dilution on agar plates.
The mark [15] stands for this setting: Serratia marcescens No. 2, serial dilution on agar plates, read-out: Minimum inhibitory concentrations (MIC.).

`COC1=C(C(=O)O)N2C(=O)[C@@H](NC(=O)[C@H](N)C3=CCC=CC3)[C@H]2SC1` [Cefroxadine, reference compound]: the MIC in assay [1] (setting [7]) was 1.56 µg/mL (≈ 4.27 µM); in assay [2] (setting [8]) it was 1.56 µg/mL (≈ 4.27 µM); in [3] (setting [9]), 3.13 µg/mL (≈ 8.57 µM); in assay [4] (setting [10]), 3.13 µg/mL (≈ 8.57 µM); with Proteus mirabilis GN 79 (setting [11]), 50 µg/mL (≈ 137 µM); in assay [5] (setting [12]), 6.25 µg/mL (≈ 17.1 µM). Also, the MIC with Proteus vulgaris GN 76 (setting [13]) is above 100 µg/mL; in the assay with Protues rettgeri GN 624 (setting [14]), above 100 µg/mL; in assay [6] (setting [15]) it was 100 µg/mL (≈ 274 µM). Besides, the “number of surviving mice” value in the assay with Escherichia coli No. 29 (0.1 mg/mouse oral) is 0; with Escherichia coli No. 29 (1 mg/mouse oral) it was 0; in the assay with Escherichia coli No. 29 (5 mg/mouse oral) it was 3; in the assay with Escherichia coli No. 29 (10 mg/mouse oral) it was 3.

With `CSC1=C(C(=O)O)N2C(=O)C(NC(=O)Cc3cccs3)C2OC1` (centres unmarked) [Example 1(b), 7-(2-thienylacetamido)-1-oxa-1-dethia-3-methylthio-3-cephem-4-carboxylic acid], the MIC in assay [1] (setting [7]) worked out at 0.2 µg/mL (≈ 0.564 µM); in assay [2] (setting [8]), 0.2 µg/mL (≈ 0.564 µM); in assay [3] (setting [9]) it was 6.25 µg/mL (≈ 17.6 µM); in [4] (setting [10]) it was 1.56 µg/mL (≈ 4.4 µM); with Proteus mirabilis GN 79 (setting [11]) it was 25 µg/mL (≈ 70.5 µM); in assay [5] (setting [12]), 1.56 µg/mL (≈ 4.4 µM). The MIC (in the assay on Proteus vulgaris GN 76 (setting [13]); in the assay with Protues rettgeri GN 624 (setting [14]); in assay [6] (setting [15])) was above 100 µg/mL throughout.

`CSC1=C(C(=O)O)N2C(=O)C(NC(=O)Cc3ccsc3)C2OC1` (centres unmarked) [Example 2(b), 7-(3-thienylacetamido)-1-oxa-1-dethia-3-methylthio-3-cephem-4-carboxylic acid]: the MIC stood at 0.1 µg/mL (≈ 0.282 µM) in assay [1] (setting [7]); 0.05 µg/mL (≈ 0.141 µM) in assay [2] (setting [8]); 6.25 µg/mL (≈ 17.6 µM) in assay [3] (setting [9]); 1.56 µg/mL (≈ 4.4 µM) in [4] (setting [10]); 25 µg/mL (≈ 70.5 µM) with Proteus mirabilis GN 79 (setting [11]); 1.56 µg/mL (≈ 4.4 µM) in assay [5] (setting [12]). Also, the MIC (with Proteus vulgaris GN 76 (setting [13]); with Protues rettgeri GN 624 (setting [14]); in [6] (setting [15])) was above 100 µg/mL in each case.

As for `CSC1=C(C(=O)O)N2C(=O)C(NC(=O)C(C(=O)O)c3cccs3)C2OC1` (centres unmarked) [Example 3(b), 7-[2-(2-thienyl)-2-carboxyacetamide]-1-oxa-1-dethia-3-methylthio-3-cephem-4-carboxylic acid], the MIC in [1] (setting [7]) was 0.39 µg/mL (≈ 0.979 µM); in assay [2] (setting [8]), 0.2 µg/mL (≈ 0.502 µM); in assay [3] (setting [9]), 0.78 µg/mL (≈ 1.96 µM); in [4] (setting [10]), 0.78 µg/mL (≈ 1.96 µM); in the assay with Proteus mirabilis GN 79 (setting [11]), 6.25 µg/mL (≈ 15.7 µM); in assay [5] (setting [12]) it was 0.78 µg/mL (≈ 1.96 µM). The MIC was 50 µg/mL (≈ 125 µM) in the assay on Proteus vulgaris GN 76 (setting [13]), 3.13 µg/mL (≈ 7.86 µM) with Protues rettgeri GN 624 (setting [14]) and 3.13 µg/mL (≈ 7.86 µM) in assay [6] (setting [15]).

`CSC1=C(C(=O)O)N2C(=O)C(NC(=O)C(C(=O)O)c3ccsc3)C2OC1` (centres unmarked) [Example 4(b), 7-[2-(3-thienyl)-2-carboxyacetamido]-1-oxa-1-dethia-3-methylthio-3-cephem-4-carboxylic acid]: the MIC in [1] (setting [7]) was 3.13 µg/mL (≈ 7.86 µM); in assay [2] (setting [8]), 1.56 µg/mL (≈ 3.92 µM); in assay [3] (setting [9]), 0.78 µg/mL (≈ 1.96 µM); in [4] (setting [10]) it was 0.39 µg/mL (≈ 0.979 µM); in the assay on Proteus mirabilis GN 79 (setting [11]) it was 1.56 µg/mL (≈ 3.92 µM); in [5] (setting [12]) it was 0.2 µg/mL (≈ 0.502 µM). For the same molecule, the MIC in the assay with Proteus vulgaris GN 76 (setting [13]) is 50 µg/mL (≈ 125 µM); in the assay with Protues rettgeri GN 624 (setting [14]), 1.56 µg/mL (≈ 3.92 µM); in assay [6] (setting [15]), 0.39 µg/mL (≈ 0.979 µM).

For the molecule `CO/N=C(\C(=O)NC1C(=O)N2C(C(=O)O)=C(SC)COC12)c1csc(N)n1` (centres unmarked) [Example 6(b), 7-[2-(2-amino-4-thiazolyl)-2-methoxy-iminoacetamido]-1-oxa-1-dethia-3-methyl-thio-3-cephem-4-carboxylic acid tri-fluoroacetate], the MIC in assay [1] (Staphylococcus aureus) is 3.13 µg/mL (≈ 7.57 µM); in assay [2] (Staphylococcus aureus, 209P), 1.56 µg/mL (≈ 3.77 µM); in assay [3] (Escherichia coli, NIHJJC2, read-out: Minimum inhibitory concentrations (MIC.)) it was 0.78 µg/mL (≈ 1.89 µM); in [4] (Klebsiella pneumoniae, PCI602, read-out: Minimum inhibitory concentrations (MIC.)), 0.1 µg/mL (≈ 0.242 µM); in the assay on Proteus mirabilis GN 79 (Proteus mirabilis, GN79, read-out: Minimum inhibitory concentrations (MIC.)) it was 0.39 µg/mL (≈ 0.943 µM); in [5] (TYPHIMURIUM), 0.05 µg/mL (≈ 0.121 µM). Further, the MIC in the assay on Proteus vulgaris GN 76 (Proteus vulgaris, GN76, read-out: Minimum inhibitory concentrations (MIC.)) was above 100 µg/mL; in the assay with Protues rettgeri GN 624, 3.13 µg/mL (≈ 7.57 µM); in assay [6] (Serratia marcescens, NO.2, read-out: Minimum inhibitory concentrations (MIC.)), 0.78 µg/mL (≈ 1.89 µM). Further, the “number of surviving mice” value is given as 1 in the assay with Escherichia coli No. 29 (0.1 mg/mouse oral), 3 in the assay on Escherichia coli No. 29 (1 mg/mouse oral), 3 with Escherichia coli No. 29 (5 mg/mouse oral) and 3 in the assay with Escherichia coli No. 29 (10 mg/mouse oral).
